{
  "source": "paper PMC5897741",
  "about": "“Thermokinetic profile of NDM-1 and its inhibition by small carboxylic acids” (Bioscience Reports, 2018)",
  "key": {"NDM-1 [1]": {"target": "T1, NDM-1 (Klebsiella pneumoniae, UniProt C7C422)", "T1 sequence (C7C422 29-270 limits assumed)": "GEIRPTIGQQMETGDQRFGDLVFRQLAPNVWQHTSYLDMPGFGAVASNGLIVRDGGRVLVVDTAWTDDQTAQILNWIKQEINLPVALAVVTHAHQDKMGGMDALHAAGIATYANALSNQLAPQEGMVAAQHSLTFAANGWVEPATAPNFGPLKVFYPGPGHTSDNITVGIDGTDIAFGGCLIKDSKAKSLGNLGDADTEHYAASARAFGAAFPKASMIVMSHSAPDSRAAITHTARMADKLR", "assay": "ITC single injection assay, enthalpy of β-lactam hydrolysis", "format": "biochemical", "set-up": "made in house; host or cells: E. coli", "conditions": "for ΔHapp: NDM-1 catalysed hydrolysis, Tris–HCl pH 7.0, 25°C; for ΔHint: Y-axis intercept of ΔHapp vs ΔHion; for ΔHint / n (number of exchanging protons): pH 7.0; for n (number of exchanging protons): slope of ΔHapp vs ΔHion", "description": "Real-time changes of heat-flow were recorded continuously until return to baseline. Control experiments were performed by titrating substrate to buffer and using those data in corrections for heat of dilution before values of ΔHapp were determined using the embedded Origin software, by dividing integrated heat by the molar quantity of substrate converted according to (eqn 1), where dQ/dt is the rate of heat production, V is the volume of the sample cell and [S]t = 0 is the substrate concentration: (1) ΔH=ft=0∞dQ/dtdt/(V[S](t=0))\nExperiments were also repeated in HEPES and phosphate buffers and the intrinsic enthalpy change (ΔHint) of the reactions calculated according to (eqn 2) by plotting the measured ΔHapp as a function of ΔHion, where ΔHion is the ionisation enthalpy of the buffer used and n represents the number of exchanging protons. The values of ΔHion used in the calculation were ΔHion (Tris–HCl) = 11.34 kcal/mol, ΔHion (HEPES) = 4.88 kcal/mol and ΔHion (phosphate) = 0.86 kcal/mol. (2) ΔHapp=ΔHint+n ΔHion"}, "[2]": {"tested_on": "clinical E. coli–NDM-1 strain", "assay": "MIC determination, broth microdilution (CLSI)", "format": "cell-based, Escherichia coli", "conditions": "for synergistic effect with imipenem: 200 and 400 μM inhibitor", "description": "Single colonies of E. coli–NDM-1 were used to inoculate Mueller–Hinton medium and were grown at 37°C overnight. […] Results were obtained after incubating the microtitre plate at 37°C for a further 18 h and turbidity of bacterial growth was recorded using a plate reader."}, "NDM-1 [3]": {"target": "T1, NDM-1", "conditions": "ITC, pH 7.0, 25°C", "excerpt": "Successive injections of antibiotic into the sample cell were made at 120 s intervals. Following (eqn 3), the change in thermal power (dQ/dt) from each titration was converted into the reaction rate (υ). These rates were used to fit to the Michaelis–Menten equation (eqn 4) to obtain the kinetic parameters KM (Michaelis–Menten constant) and kcat (turnover rates), where [E]tot is the total concentration of active enzyme. (3) υ=dP/dt=1/VΔHapp⋅dQ/dt (4) υ=kcat[E]tot[S]/KM+[S]"}, "NDM-1 [4]": {"target": "T1, NDM-1", "set-up": "made in house; host or cells: E. coli; method as in doi:10.1016/j.ejbas.2015.07.006", "conditions": "cited from earlier work"}, "NDM-1 [5]": {"target": "T1, NDM-1", "assay": "ITC multi-injection inhibition assay", "format": "biochemical", "set-up": "made in house; host or cells: E. coli", "conditions": "for Kiu (uncompetitive inhibition constant): ITC inhibition assay, penicillin G, 25°C, 50 mM Tris–HCl, pH 7.0, 100 mM NaCl; for mode of inhibition: pH 7.0", "excerpt": "Competitive (Kic) and uncompetitive (Kiu) inhibition constant values for each inhibitor were obtained by fitting calculated reaction rates (υ) at different inhibitor concentrations to (eqn 5) using nonlinear regression analysis in Origin software (embedded with ITC), with Kic and Kiu set as shared parameters between all datasets, inhibitor concentration [I], [E]tot, [S] as independent variables and υ as dependent variable."}, "CcrA": {"tested_on": "CcrA", "conditions": "cited from earlier work"}, "L1": {"tested_on": "L1", "conditions": "cited from earlier work"}, "ImiS": {"tested_on": "ImiS", "conditions": "cited from earlier work"}, "[6]": {"tested_on": "clinical E. coli strain expressing NDM-1 gene (E. coli–NDM-1)", "conditions": "400 μM compound, imipenem titrated into E. coli–NDM-1 suspension; efficacy order 7 > 1 > 8"}, "NDM-1 [7]": {"target": "T1, NDM-1", "assay": "biochemical", "description": "Rates were also determined in the presence of inhibitor by pre-incubation with the enzyme for 30 min at RT before starting kinetic experiments. IC50 values were determined using GraphPad Prism5 software (GraphPadSoftware, La Jolla, CA, USA) by plotting percentage of inhibition against inhibitor concentration; average values from three measurements are reported."}, "CphA": {"tested_on": "CphA", "conditions": "cited from earlier work"}, "IMP-1": {"tested_on": "IMP-1", "conditions": "cited from earlier work"}},
  "data": [
    {"smiles": "C[C@@H](O)[C@H]1C(=O)N2C(C(=O)O)=C(SCCN=CN)C[C@H]12", "note": "[Imipenem, imipenem]", "values": [
      {"measurement": "ΔHapp", "setting": "NDM-1 [1]", "result": "-32.5 ± 0.08", "unit": "kcal/mol"},
      {"measurement": "ΔHapp", "setting": "NDM-1 [1]; listed as imipenem", "result": "–32.5 kcal/mol"},
      {"measurement": "ΔHint", "setting": "NDM-1 [1]", "result": "-18.4 ± 0.12", "unit": "kcal/mol"},
      {"measurement": "n (number of exchanging protons)", "setting": "NDM-1 [1]", "result": "−1.24 ± 0.02"},
      {"measurement": "n (number of exchanging protons)", "setting": "NDM-1 [1]; listed as imipenem", "result": "−1.24 (± 0.02)"},
      {"measurement": "MIC", "setting": "[2]; Escherichia coli, 0 μM inhibitor, read-out: MIC of imipenem", "result": 16, "unit": "µg/mL"},
      {"measurement": "Km", "setting": "NDM-1 [3]", "result": "168 ± 28", "unit": "µM"},
      {"measurement": "kcat", "setting": "NDM-1 [3]", "result": "23 ± 1", "unit": "s⁻¹"}
    ]},
    {"smiles": "Cc1cc(/N=N/c2ccc(O)c(C(=O)O)c2)ccc1O", "note": "[Compound 2]", "values": [
      {"measurement": "predicted inhibition in docking", "setting": "NDM-1 [4]", "result": "predicted to inhibit NDM-1"}
    ]},
    {"smiles": "CC1(C)S[C@@H]2[C@H](NC(=O)Cc3ccccc3)C(=O)N2[C@H]1C(=O)O", "note": "[Penicillin G, penicillin G]", "values": [
      {"measurement": "ΔHapp", "setting": "NDM-1 [1]", "result": "-27.9 ± 0.01", "unit": "kcal/mol"},
      {"measurement": "ΔHapp", "setting": "NDM-1 [1]; listed as penicillin G", "result": "–27.9 kcal/mol"},
      {"measurement": "ΔHint", "setting": "NDM-1 [1]", "result": "-18.3 ± 0.73", "unit": "kcal/mol"},
      {"measurement": "n (number of exchanging protons)", "setting": "NDM-1 [1]", "result": "−0.87 ± 0.10"},
      {"measurement": "n (number of exchanging protons)", "setting": "NDM-1 [1]; listed as penicillin G", "result": "−0.87 (± 0.10)"},
      {"measurement": "Km", "setting": "NDM-1 [3]", "result": "139 ± 12", "unit": "µM"},
      {"measurement": "kcat", "setting": "NDM-1 [3]", "result": "54 ± 1", "unit": "s⁻¹"}
    ]},
    {"smiles": "C[C@H](CS)C(=O)N1CCC[C@@H]1C(=O)O", "note": "[Compound 1, D-Captopril, reference compound]", "values": [
      {"measurement": "Kiu (uncompetitive inhibition constant)", "setting": "NDM-1 [5]", "result": "178 ± 21", "unit": "µM"}
    ]},
    {"smiles": "Cc1nnc(SCC2=C(C(=O)O)N3C(=O)[C@@H](NC(=O)Cn4cnnn4)[C@H]3SC2)s1", "note": "[Cefazolin, cefazolin]", "values": [
      {"measurement": "ΔHapp", "setting": "NDM-1 [1]", "result": "-28.3 ± 0.97", "unit": "kcal/mol"},
      {"measurement": "ΔHapp", "setting": "NDM-1 [1]; listed as cefazolin", "result": "–28.3 kcal/mol"},
      {"measurement": "ΔHint", "setting": "NDM-1 [1]", "result": "-5.20 ± 0.04", "unit": "kcal/mol"},
      {"measurement": "n (number of exchanging protons)", "setting": "NDM-1 [1]", "result": "−1.89 ± 0.04"},
      {"measurement": "Km", "setting": "NDM-1 [3]", "result": "237 ± 14", "unit": "µM"},
      {"measurement": "kcat", "setting": "NDM-1 [3]", "result": "42 ± 1", "unit": "s⁻¹"}
    ]},
    {"smiles": "O=C(O)[C@H]1CS[C@@H](C(=O)O)N1", "note": "(racemic) [Compound 8, rac-thiazolidine-2,4-dicarboxylic acid]", "values": [
      {"measurement": "effect on activity", "setting": "CcrA", "result": "powerful effect"},
      {"measurement": "Ki", "setting": "CcrA; class B1 CcrA", "result": 640, "unit": "nM"},
      {"measurement": "effect on activity", "setting": "L1", "result": "powerful effect"},
      {"measurement": "Ki", "setting": "L1; class B3 L1", "result": 1800, "unit": "nM"},
      {"measurement": "effect on activity", "setting": "ImiS", "result": "powerful effect"},
      {"measurement": "Ki", "setting": "ImiS; class B2 ImiS", "result": 7.1, "unit": "µM"},
      {"measurement": "Ki", "setting": "NDM-1 [5]", "result": "152 ± 6", "unit": "µM"},
      {"measurement": "Kiu (uncompetitive inhibition constant)", "setting": "NDM-1 [5]", "result": "5 ± 0.46", "unit": "µM"},
      {"measurement": "mode of inhibition", "setting": "NDM-1 [5]", "result": "predominantly uncompetitive"},
      {"measurement": "inhibition of imipenem turnover in live bacteria", "setting": "[6]", "result": "capable of inhibiting the turnover rate of imipenem"},
      {"measurement": "IC50", "setting": "NDM-1 [7]", "result": "3.45 ± 0.26", "unit": "µM"},
      {"measurement": "MIC of imipenem in combination with inhibitor", "setting": "[2]; 200 μM inhibitor", "result": 16, "unit": "µg/mL"},
      {"measurement": "MIC of imipenem in combination with inhibitor", "setting": "[2]; 400 μM inhibitor", "result": 8, "unit": "µg/mL"},
      {"measurement": "reduction of MIC of imipenem", "setting": "[2]; 400 μM inhibitor", "result": 2, "unit": "fold"},
      {"measurement": "synergistic effect with imipenem", "setting": "[2]", "result": "weaker synergy"}
    ]},
    {"smiles": "O=C(O)c1cccc(C(=O)O)n1", "note": "[Compound 7, pyridine-2,6-dicarboxylic acid]", "values": [
      {"measurement": "Ki", "setting": "NDM-1 [5]", "result": "2.17 ± 0.48", "unit": "µM"},
      {"measurement": "Kiu (uncompetitive inhibition constant)", "setting": "NDM-1 [5]", "result": "2.07 ± 0.06", "unit": "µM"},
      {"measurement": "mode of inhibition", "setting": "NDM-1 [5]", "result": "mixed inhibitor"},
      {"measurement": "inhibition of imipenem turnover in live bacteria", "setting": "[6]", "result": "capable of inhibiting the turnover rate of imipenem"},
      {"measurement": "IC50", "setting": "NDM-1 [7]", "result": "1.13 ± 0.04", "unit": "µM"},
      {"measurement": "inhibition", "setting": "CphA", "result": "effective inhibitor"},
      {"measurement": "MIC of imipenem in combination with inhibitor", "setting": "[2]; 200 μM inhibitor", "result": 4, "unit": "µg/mL"},
      {"measurement": "MIC of imipenem in combination with inhibitor", "setting": "[2]; 400 μM inhibitor", "result": 1, "unit": "µg/mL"},
      {"measurement": "synergistic effect with imipenem", "setting": "[2]", "result": "restore the susceptibility"},
      {"measurement": "inhibition", "setting": "IMP-1", "result": "effective inhibitor"}
    ]},
    {"smiles": "O=C(O)[C@@H](O)[C@H](O)C(=O)O", "note": "[Compound 5, D-(−)-tartaric acid]", "values": [
      {"measurement": "Ki", "setting": "NDM-1 [5]", "result": "365 ± 72", "unit": "µM"},
      {"measurement": "Kiu (uncompetitive inhibition constant)", "setting": "NDM-1 [5]", "result": "993 ± 107", "unit": "µM"},
      {"measurement": "mode of inhibition", "setting": "NDM-1 [5]", "result": "mainly competitive"},
      {"measurement": "IC50", "setting": "NDM-1 [7]", "result": "409 ± 16", "unit": "µM"}
    ]},
    {"smiles": "O=C(O)/C=C/C(=O)O", "note": "[Compound 6, fumaric acid]", "values": [
      {"measurement": "Ki", "setting": "NDM-1 [5]", "result": "198 ± 50", "unit": "µM"},
      {"measurement": "Kiu (uncompetitive inhibition constant)", "setting": "NDM-1 [5]", "result": "638 ± 94", "unit": "µM"},
      {"measurement": "mode of inhibition", "setting": "NDM-1 [5]", "result": "mainly competitive"},
      {"measurement": "IC50", "setting": "NDM-1 [7]", "result": "232 ± 5", "unit": "µM"}
    ]}
  ]
}
